This note sets out measurements from patent US20240217960A1, “TRIAZINE DERIVATIVE AS COVALENT INHIBITORS OF PI3K” (UNIVERSITÄT BASEL, priority 2021, published 2024).

Structures are written as SMILES. Where two headings read alike, the source gives them in different places. Where only a bound is given, the exact number is not on record here.

The nature of assay [1]: Intrinsic reactivity of the inhibitors (kchem) with βME measured with HPLC. It counts as physicochemical. The note with it: 1 mM inhibitor + 600 mM βME, n = 3.
The next assay addresses p110α (PI3Kα) (Homo sapiens, UniProt P42336). In words: Determination of kinetic constants (kinact, Ki) for p110α by LanthaScreen Technology. It counts as binding. The note with it: for kinact: maximum potential rate of covalent bond formation, read-out: kinact PI3Kα; for kinact/KI: read-out: kinact/Ki PI3Kα.
For assay [2], the system named is pSer473 of PKB/Akt in SKOV3 cells. In words: In Cell Western cellular PI3K signaling and IC50 determination. It counts as cell-based. The note with it: Homo sapiens. The method, then: Protein phosphorylation was detected as follows: pSer473 of PKB/Akt with rabbit polyclonal antibody from Cell Signaling Technology (CST) (#4058) by In-Cell Western assays, where 1.2×10^4 SKOV3 cells/well in 96-well plates were plated (Cell Carrier, PerkinElmer) for 24 hours (37° C., 5% CO2), as described in Ref. ^25.

Setting [3] is: dissociation constant of the first reversible binding, global fitting with KinTek, read-out: Ki PI3Kα.
Where [4] appears, read: SK-OV-3, SKOV3 cells, 2 or 3 independent measurements, read-out: IC50 pPKB (S473) SKOV3.
The mark [5] stands for this setting: Ki value determined after 60 min of drug incubation with PI3Kα, 2 independent measurements, read-out: Ki PI3Kα (footnote d).
[6] abbreviates: SK-OV-3, read-out: IC50 pPKB (S473) SKOV3.

Sequence of p110α (PI3Kα) (P42336 whole entry): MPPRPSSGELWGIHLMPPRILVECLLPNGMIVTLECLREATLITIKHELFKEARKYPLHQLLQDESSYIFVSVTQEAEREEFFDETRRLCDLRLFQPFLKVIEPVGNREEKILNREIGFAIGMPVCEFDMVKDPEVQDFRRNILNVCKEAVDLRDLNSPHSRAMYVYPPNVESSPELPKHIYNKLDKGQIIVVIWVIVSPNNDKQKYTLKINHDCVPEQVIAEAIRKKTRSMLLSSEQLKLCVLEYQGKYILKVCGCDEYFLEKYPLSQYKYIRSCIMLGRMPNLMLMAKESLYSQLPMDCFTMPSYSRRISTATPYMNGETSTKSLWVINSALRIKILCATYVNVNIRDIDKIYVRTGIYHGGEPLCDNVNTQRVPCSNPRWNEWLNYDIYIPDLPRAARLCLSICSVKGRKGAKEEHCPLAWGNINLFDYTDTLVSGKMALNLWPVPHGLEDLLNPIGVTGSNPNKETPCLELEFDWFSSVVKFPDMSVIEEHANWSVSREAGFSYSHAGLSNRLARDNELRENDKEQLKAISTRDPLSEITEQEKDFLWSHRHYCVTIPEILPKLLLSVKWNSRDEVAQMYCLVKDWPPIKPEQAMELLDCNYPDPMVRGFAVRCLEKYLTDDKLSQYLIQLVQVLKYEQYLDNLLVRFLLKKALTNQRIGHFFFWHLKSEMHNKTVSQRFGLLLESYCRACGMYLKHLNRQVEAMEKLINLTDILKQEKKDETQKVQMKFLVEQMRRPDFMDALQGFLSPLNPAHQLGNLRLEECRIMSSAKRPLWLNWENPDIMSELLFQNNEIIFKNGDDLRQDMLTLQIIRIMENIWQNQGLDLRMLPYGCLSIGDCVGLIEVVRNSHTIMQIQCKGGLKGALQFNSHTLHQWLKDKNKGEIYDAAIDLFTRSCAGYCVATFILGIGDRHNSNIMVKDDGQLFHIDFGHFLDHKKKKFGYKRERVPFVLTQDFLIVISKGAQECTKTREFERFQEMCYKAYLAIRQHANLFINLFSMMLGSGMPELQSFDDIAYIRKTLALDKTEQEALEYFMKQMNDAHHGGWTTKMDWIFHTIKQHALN
Sequence of p110α (PI3Kα) (P27986 whole entry partner): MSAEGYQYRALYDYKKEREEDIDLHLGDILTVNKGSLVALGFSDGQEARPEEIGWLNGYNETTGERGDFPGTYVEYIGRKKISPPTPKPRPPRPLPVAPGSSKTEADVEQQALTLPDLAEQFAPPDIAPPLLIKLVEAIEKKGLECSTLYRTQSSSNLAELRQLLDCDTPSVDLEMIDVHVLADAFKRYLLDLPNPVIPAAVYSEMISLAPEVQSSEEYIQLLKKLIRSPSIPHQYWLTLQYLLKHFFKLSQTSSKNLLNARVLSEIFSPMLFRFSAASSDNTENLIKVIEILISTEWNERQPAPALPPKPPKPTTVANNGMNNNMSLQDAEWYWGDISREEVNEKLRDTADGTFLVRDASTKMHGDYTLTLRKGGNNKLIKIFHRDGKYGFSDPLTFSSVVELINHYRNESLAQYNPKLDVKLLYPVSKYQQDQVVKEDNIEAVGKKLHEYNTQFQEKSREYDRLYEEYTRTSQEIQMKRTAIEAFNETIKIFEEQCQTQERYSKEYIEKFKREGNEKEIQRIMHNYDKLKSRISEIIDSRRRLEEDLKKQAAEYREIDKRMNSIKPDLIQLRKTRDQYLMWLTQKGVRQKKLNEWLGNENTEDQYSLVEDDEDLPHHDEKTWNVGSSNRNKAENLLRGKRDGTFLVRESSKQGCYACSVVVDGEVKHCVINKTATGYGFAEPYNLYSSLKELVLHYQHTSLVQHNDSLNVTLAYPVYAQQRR
Procedure for p110α (PI3Kα): Maximum potential rate of covalent bond formation (kinact) and dissociation constant of the first reversible binding (Ki) of compounds for p110α were determined by LanthaScreen Technology (Life Technologies). The calculation of kinetic parameters was carried out through global fitting for numerical integration by using KinTek Global Kinetic Explorer modelling software^26-31.

For `CN(C)C/C=C/C(=O)N1CCC(C(=O)N(C)CCC(=O)N2CCN(c3nc(-c4cnc(N)nc4C(F)F)nc(N4CCOCC4)n3)CC2)CC1` [Compound 58, (E)-N-(3-(4-(4-(2-amino-4-(difluoromethyl)pyrimidin-5-yl)-6-morpholino-1,3,5-triazin-2-yl)piperazin-1-yl)-3-oxopropyl)-1-(4-(dimethylamino)but-2-enoyl)-N-methylpiperidine-4-carboxamide], the “kchem (intrinsic reactivity of the inhibitors)” value in assay [1] turned out to be 0.000386 M⁻¹ s⁻¹. Also, the inhibitory constant (Ki) at p110α (PI3Kα) (setting [3]) came to 12.2 nM. Further, the kinact on p110α (PI3Kα) (global fitting with KinTek) was 0.000406 s⁻¹. For the same molecule, on p110α (PI3Kα), the kinact/KI was found to be 33600 M⁻¹ s⁻¹. Also, in assay [2] (setting [4]), the IC50 came out at 260 nM.

For the molecule `C=CC(=O)N1CCC(C(=O)N2CCN(c3nc(-c4cnc(N)nc4C(F)F)nc(N4CCOCC4)n3)CC2)CC1` [Compound 28, 1-(4-(4-(4-(2-amino-4-(difluoromethyl)pyrimidin-5-yl)-6-morpholino-1,3,5-triazin-2-yl)piperazine-1-carbonyl)piperidin-1-yl)prop-2-en-1-one], the “kchem (intrinsic reactivity of the inhibitors)” value in assay [1] was 0.00041 M⁻¹ s⁻¹. Also, the Ki on p110α (PI3Kα) (setting [3]) turned out to be 10.8 nM. Further, the kinact at p110α (PI3Kα) (global fitting with KinTek) stood at 5.77e-05 s⁻¹. Also, the kinact/KI at p110α (PI3Kα) is 5390 M⁻¹ s⁻¹. Moreover, the IC50 in assay [2] (setting [4]) is 51 nM.

For the molecule `C=CC(=O)N1CCC(CCC(=O)N2CCN(c3nc(-c4cnc(N)nc4C(F)F)nc(N4CCOCC4)n3)CC2)CC1` [Compound 40, 1-(4-(3-(4-(4-(2-amino-4-(difluoromethyl)pyrimidin-5-yl)-6-morpholino-1,3,5-triazin-2-yl)piperazin-1-yl)-3-oxopropyl)piperidin-1-yl)prop-2-en-1-one], in assay [1], the “kchem (intrinsic reactivity of the inhibitors)” value came out at 0.000307 M⁻¹ s⁻¹. The Ki on p110α (PI3Kα) (setting [3]) came out at 8.56 nM. For the same molecule, the kinact at p110α (PI3Kα) (global fitting with KinTek) is 0.000292 s⁻¹. Also, the kinact/KI at p110α (PI3Kα) was determined as 34300 M⁻¹ s⁻¹. In addition, the IC50 in assay [2] (setting [4]) stood at 48 nM.

`C/C=C/C(=O)CCCCCC(=O)N1CCN(c2nc(-c3cnc(N)nc3C(F)F)nc(N3CCOCC3)n2)CC1` [Compound 21, (E)-1-(4-(4-(2-amino-4-(difluoromethyl)pyrimidin-5-yl)-6-morpholino-1,3,5-triazin-2-yl)piperazin-1-yl)dec-8-ene-1,7-dione]: in assay [1], the “kchem (intrinsic reactivity of the inhibitors)” value came to 0.0632 M⁻¹ s⁻¹. At p110α (PI3Kα) (setting [3]), the inhibitory constant (Ki) was 11.7 nM. Besides, the kinact at p110α (PI3Kα) (global fitting with KinTek) was 0.016 s⁻¹. In addition, the kinact/KI at p110α (PI3Kα) turned out to be 1.27e+06 M⁻¹ s⁻¹. Moreover, the IC50 in assay [2] (setting [4]) was found to be 44.5 nM.

Regarding `C=CC(=O)NCCCC(=O)N1CCN(c2nc(-c3cnc(N)nc3C(F)F)nc(N3CCOCC3)n2)CC1` [Compound 13, N-(4-(4-(4-(2-amino-4-(difluoromethyl)pyrimidin-5-yl)-6-morpholino-1,3,5-triazin-2-yl)piperazin-1-yl)-4-oxobutyl)acrylamide], the “kchem (intrinsic reactivity of the inhibitors)” value in assay [1] amounted to 0.000138 M⁻¹ s⁻¹. Moreover, the Ki on p110α (PI3Kα) (setting [3]) worked out at 5.36 nM. Moreover, on p110α (PI3Kα) (global fitting with KinTek), the kinact turned out to be 7.6e-05 s⁻¹. In addition, the kinact/KI at p110α (PI3Kα) came to 14200 M⁻¹ s⁻¹.

On to `C/C=C/C(=O)N(C)CCCC(=O)N1CCN(c2nc(-c3cnc(N)nc3C(F)F)nc(N3CCOCC3)n2)CC1` [Compound 9, (E)-N-(4-(4-(4-(2-amino-4-(difluoromethyl)pyrimidin-5-yl)-6-morpholino-1,3,5-triazin-2-yl)piperazin-1-yl)-4-oxobutyl)-N-methylbut-2-enamide], for which, in assay [1], the “kchem (intrinsic reactivity of the inhibitors)” value stood at 3.35e-06 M⁻¹ s⁻¹. For the same molecule, the Ki on p110α (PI3Kα) (setting [5]) is 5.4 nM.

Turning to `CC(C)=CC(=O)CCCC(=O)N1CCN(c2nc(-c3cnc(N)nc3C(F)F)nc(N3CCOCC3)n2)CC1` [Compound 23, 1-(4-(4-(2-amino-4-(difluoromethyl)pyrimidin-5-yl)-6-morpholino-1,3,5-triazin-2-yl)piperazin-1-yl)-7-methyloct-6-ene-1,5-dione], the “kchem (intrinsic reactivity of the inhibitors)” value in assay [1] stood at 0.000224 M⁻¹ s⁻¹. Further, the Ki at p110α (PI3Kα) (setting [3]) stood at 8.06 nM. Further, the kinact at p110α (PI3Kα) (global fitting with KinTek) came to 2.56e-05 s⁻¹. In addition, on p110α (PI3Kα), the kinact/KI came out at 3210 M⁻¹ s⁻¹.

With `C/C=C/C(=O)CCCCC(=O)N1CCN(c2nc(-c3cnc(N)nc3C(F)F)nc(N3CCOCC3)n2)CC1` [Compound 2, (E)-1-(4-(4-(2-amino-4-(difluoromethyl)pyrimidin-5-yl)-6-morpholino-1,3,5-triazin-2-yl)piperazin-1-yl)non-7-ene-1,6-dione], the “kchem (intrinsic reactivity of the inhibitors)” value in assay [1] came to 0.0857 M⁻¹ s⁻¹. Also, the Ki at p110α (PI3Kα) (setting [3]) came to 5.76 nM. In addition, at p110α (PI3Kα) (global fitting with KinTek), the kinact was 0.00392 s⁻¹. The kinact/KI on p110α (PI3Kα) came out at 693000 M⁻¹ s⁻¹. Besides, the IC50 in assay [2] (setting [4]) is 46.9 nM.

As to `C/C=C/C(=O)CCC(=O)N1CCN(c2nc(-c3cnc(N)nc3C(F)F)nc(N3CCOCC3)n2)CC1` [Compound 19, (E)-1-(4-(4-(2-amino-4-(difluoromethyl)pyrimidin-5-yl)-6-morpholino-1,3,5-triazin-2-yl)piperazin-1-yl)hept-5-ene-1,4-dione], in assay [1], the “kchem (intrinsic reactivity of the inhibitors)” value came out at 0.0484 M⁻¹ s⁻¹. The Ki at p110α (PI3Kα) (setting [3]) was 1.51 nM. Further, at p110α (PI3Kα) (global fitting with KinTek), the maximal inactivation rate constant (kinact) came to 0.0002 s⁻¹. On p110α (PI3Kα), the kinact/KI was 130000 M⁻¹ s⁻¹. Also, in assay [2] (setting [4]), the IC50 amounted to 20 nM.

On to `C=CC(=O)N1CCC(C(=O)NCC(=O)N2CCN(c3nc(-c4cnc(N)nc4C(F)F)nc(N4CCOCC4)n3)CC2)CC1` [Compound 43, 1-acryloyl-N-(2-(4-(4-(2-amino-4-(difluoromethyl)pyrimidin-5-yl)-6-morpholino-1,3,5-triazin-2-yl)piperazin-1-yl)-2-oxoethyl)piperidine-4-carboxamide], for which the “kchem (intrinsic reactivity of the inhibitors)” value in assay [1] worked out at 0.00037 M⁻¹ s⁻¹. Besides, the IC50 in assay [2] (setting [6]) was 82 nM.

Turning to `C=CC(=O)N1CCC(C(=O)N(C)CCC(=O)N2CCN(c3nc(-c4cnc(N)nc4C(F)F)nc(N4CCOCC4)n3)CC2)CC1` [Compound 57, 1-acryloyl-N-(3-(4-(4-(2-amino-4-(difluoromethyl)pyrimidin-5-yl)-6-morpholino-1,3,5-triazin-2-yl)piperazin-1-yl)-3-oxopropyl)-N-methylpiperidine-4-carboxamide], the “kchem (intrinsic reactivity of the inhibitors)” value in assay [1] stood at 0.000388 M⁻¹ s⁻¹. Besides, on p110α (PI3Kα) (setting [3]), the Ki was determined as 14.6 nM. Besides, the kinact at p110α (PI3Kα) (global fitting with KinTek) worked out at 0.000378 s⁻¹. Moreover, at p110α (PI3Kα), the kinact/KI was determined as 26100 M⁻¹ s⁻¹. Besides, the IC50 in assay [2] (setting [4]) stood at 250 nM.

Turning to `C=CC(=O)N1CCC(Cc2ccc(C(=O)N3CCN(c4nc(-c5cnc(N)nc5C(F)F)nc(N5CCOCC5)n4)CC3)cc2)CC1` [Compound 100, 1-(4-(4-(4-(4-(2-amino-4-(difluoromethyl)pyrimidin-5-yl)-6-morpholino-1,3,5-triazin-2-yl)piperazine-1-carbonyl)benzyl)piperidin-1-yl)prop-2-en-1-one], in assay [1], the “kchem (intrinsic reactivity of the inhibitors)” value is 0.000324 M⁻¹ s⁻¹. In addition, the Ki on p110α (PI3Kα) (setting [3]) amounted to 9.11 nM. Further, the kinact on p110α (PI3Kα) (global fitting with KinTek) was 0.000123 s⁻¹. In addition, the kinact/KI at p110α (PI3Kα) was 13700 M⁻¹ s⁻¹. Further, the IC50 in assay [2] (setting [4]) turned out to be 56 nM.

Turning to `C/C=C/C(=O)CCCC(=O)N1CCN(c2nc(-c3cnc(N)nc3C(F)F)nc(N3CCOCC3)n2)CC1` [Compound 20, (E)-1-(4-(4-(2-amino-4-(difluoromethyl)pyrimidin-5-yl)-6-morpholino-1,3,5-triazin-2-yl)piperazin-1-yl)oct-6-ene-1,5-dione], the “kchem (intrinsic reactivity of the inhibitors)” value in assay [1] stood at 0.0806 M⁻¹ s⁻¹. At p110α (PI3Kα) (setting [3]), the Ki amounted to 6.69 nM. For the same molecule, the kinact on p110α (PI3Kα) (global fitting with KinTek) was 0.00121 s⁻¹. Moreover, the kinact/KI on p110α (PI3Kα) stood at 183000 M⁻¹ s⁻¹. The IC50 in assay [2] (setting [4]) amounted to 38.8 nM.

For `CC(C)=CC(=O)N(C)CCCC(=O)N1CCN(c2nc(-c3cnc(N)nc3C(F)F)nc(N3CCOCC3)n2)CC1` [Compound 11, N-(4-(4-(4-(2-amino-4-(difluoromethyl)pyrimidin-5-yl)-6-morpholino-1,3,5-triazin-2-yl)piperazin-1-yl)-4-oxobutyl)-N,3-dimethylbut-2-enamide], the “kchem (intrinsic reactivity of the inhibitors)” value in assay [1] is reported as <<1.00 × 10^−7 M^−1 · s^−1. Also, the Ki on p110α (PI3Kα) (setting [5]) worked out at 6.95 nM.

As for `CC(C)=CC(=O)CCCCCC(=O)N1CCN(c2nc(-c3cnc(N)nc3C(F)F)nc(N3CCOCC3)n2)CC1` [Compound 24, 1-(4-(4-(2-amino-4-(difluoromethyl)pyrimidin-5-yl)-6-morpholino-1,3,5-triazin-2-yl)piperazin-1-yl)-9-methyldec-8-ene-1,7-dione], in assay [1], the “kchem (intrinsic reactivity of the inhibitors)” value came to 0.000173 M⁻¹ s⁻¹. Also, the IC50 in assay [2] (setting [4]) is 89.2 nM.

With `C=CC(=O)N1CCC(C(=O)N(C)CC(=O)N2CCN(c3nc(-c4cnc(N)nc4C(F)F)nc(N4CCOCC4)n3)CC2)CC1` [Compound 54, 1-acryloyl-N-(2-(4-(4-(2-amino-4-(difluoromethyl)pyrimidin-5-yl)-6-morpholino-1,3,5-triazin-2-yl)piperazin-1-yl)-2-oxoethyl)-N-methylpiperidine-4-carboxamide], in assay [1], the “kchem (intrinsic reactivity of the inhibitors)” value was found to be 0.000354 M⁻¹ s⁻¹. Besides, the IC50 in assay [2] (setting [6]) stood at 86 nM.

Regarding `CC(C)=CC(=O)CCC(=O)N1CCN(c2nc(-c3cnc(N)nc3C(F)F)nc(N3CCOCC3)n2)CC1` [Compound 22, 1-(4-(4-(2-amino-4-(difluoromethyl)pyrimidin-5-yl)-6-morpholino-1,3,5-triazin-2-yl)piperazin-1-yl)-6-methylhept-5-ene-1,4-dione], the “kchem (intrinsic reactivity of the inhibitors)” value in assay [1] was determined as 0.000188 M⁻¹ s⁻¹. Also, at p110α (PI3Kα) (global fitting with KinTek), the kinact stood at 1.13e-05 s⁻¹.

As for `C=CC(=O)N1CCC(CC(=O)N2CCN(c3nc(-c4cnc(N)nc4C(F)F)nc(N4CCOCC4)n3)CC2)CC1` [Compound 35, 1-(4-(2-(4-(4-(2-amino-4-(difluoromethyl)pyrimidin-5-yl)-6-morpholino-1,3,5-triazin-2-yl)piperazin-1-yl)-2-oxoethyl)piperidin-1-yl)prop-2-en-1-one], the “kchem (intrinsic reactivity of the inhibitors)” value in assay [1] stood at 0.000249 M⁻¹ s⁻¹. Besides, the Ki at p110α (PI3Kα) (setting [3]) turned out to be 10.8 nM. The kinact at p110α (PI3Kα) (global fitting with KinTek) is 9.84e-05 s⁻¹. In addition, the kinact/KI at p110α (PI3Kα) turned out to be 9290 M⁻¹ s⁻¹. Also, in assay [2] (setting [4]), the 50% inhibitory concentration (IC50) amounted to 47 nM.
